Test: LCMS analysis of deuterium/hydrogen exchange in solution
Type: physicochemical
Conditions: NMR sample in dmso-d6, standing at room temperature
Experimental: A sample of rac-1 (440 mg, 1.07 mmol) was stirred in THF (10 mL) in the presence of K2CO3 (645 mg, 4.69 mmol; 4.4 eq.) and D2O (1.77 g, 88.5 mmol; 82.6 eq.) at room temperature. The reaction progress was monitored by LCMS and Mass analysis. After 9 days a sample was taken and concentrated under reduced pressure to give 96-100% pure (LCMS, UV 215 and 254 nm respectively) racemic 1-d3 (38.9 mg) according to ^1H-NMR analysis. […] Calcd. for C18H11D3F3NO5S M: 416.39

- deuterium/hydrogen exchange (isotopic stability): deuterium loss took place in dmso-d6
Compound: NC1=C(OS(=O)(=O)Cc2ccccc2)C(=O)C(c2ccc(C(F)(F)F)cc2)O1 (racemic) [Compound 1-d3, 2-amino-4-oxo-5-(4-(trifluoromethyl)phenyl)-4,5-dihydrofuran-3-yl phenylmethanesulfonate]
